Measured values reported in publication PMC5833389 (Oncogenesis, 2018).
Where “and” joins values, the source holds several entries; their conditions need not be identical. Identical values can stand only once. Like-named read-outs stand apart in the source and are kept apart here.

Key:
PC-3 = assay: Cancer cell line panel, 2D proliferation (Eurofins Panlabs); assay type: cell-based, human; details: PC-3, 2D culture, 72 h
Procedure: (§1) Drug sensitivity of a panel of human cancer cell lines was tested at Eurofins Panlabs (Bothell, WA, USA). Cells were treated for 72 h, fixed and stained with diaminophenylindole to visualize nuclei and the fluorescence intensity of each well was measured (GE Healthcare IN Cell Analyzer 1000). Relative cell proliferation in compound-treated cultures (signal as percent of control, “POC”) was calculated as follows: POC (t = 72 h) = 100 × fluorescence (compound wells) / fluorescence (control wells). In addition, for each compound-treated culture, the cell count after incubation for 72 h (POC [t = 72 h]) was related to the count at start of treatment (POC [t = 0 h]): POC [t = 0 h] = 100 × fluorescence at t = 0 [control wells]/fluorescence at t = 72 h [control wells]). To calculate concentration–response curves, POC data were analyzed using a four-parameter log-logistic function without upper or lower limitation.

[1] = tested on: Calu-6 lung adenocarcinoma cells; assay: as above; assay type: cell-based, human; details: Calu-6, 2D culture, 72 h
Procedure: as §1

[2] = tested on: panel of 243 cancer cell lines; assay: as above; assay type: cell-based, human; details: 2D culture
Procedure: as §1

NCI-H2110 lung xenograft = assay: Subcutaneous xenograft efficacy; assay type: in vivo, mice
Procedure: (§2) Statistical evaluation was performed using SAS 8.2 (SAS Institute, Cary, NC, USA) and Proc StatXact (Cytel Software, Cambridge, MA, USA).
(§3) where Td and Cd denote the median of the tumor volume in the treatment group and the control group at day d, respectively. A one-sided increasing Wilcoxon test was applied to compare each experimental group with the vehicle control, the p values were adjusted for multiple comparisons according to Bonferroni–Holm. The level of significance was fixed at α = 5%. An adjusted p value of <0.05 was considered to show a significant difference between groups.

PC-3 cells [3] = assay: Clonogenic assay in soft agar (anchorage-independent growth); assay type: cell-based, human; details: Homo sapiens, PC-3, alamarBlue, read-out: Colony formation EC50 PC-3
Procedure: Clonogenic assays were performed using agarose-containing media. Cells were incubated at 37 °C and 5% CO2 for 14 days. alamarBlue® was used to detect colonies of viable cells (530 nm/590 nm). Data analysis was performed as described above.

[4] = clinical trials NCT01905111 and NCT01335269; cited from earlier work
FES = target: T1, FES (Homo sapiens, UniProt P07332); assay: FES kinase assay, Z'-LYTE; assay type: biochemical
T1 construct: purchased Invitrogen/Life Technologies
Procedure: (§4) IC50 values on FAK and PYK2 were determined using the DELFIA® format, using kinase proteins obtained from Invitrogen (#PV3832, #PV4567) and biotinylated poly(Glu,Tyr) as substrate. Incubation in the presence of test compound was followed by detection of phosphorylated substrate using streptavidin-coated plates and Eu-N1 anti-phospho-Tyr PT66 antibody (#AD0040, VICTOR™ reader, both Perkin Elmer). Data were analyzed using GraphPad Prism. […] Data was fitted by iterative calculation using a sigmoidal curve analysis with variable Hill slope. In independent assays, IC50 values were determined using Z'-LYTE® technology, which is based on FRET (Invitrogen/Life Technologies). Selectivity was determined on the Invitrogen kinase panel at 1 µmol/L.

PC-3 cells [5] = assay: Proliferation assay, adherent monolayer, alamarBlue; assay type: cell-based, human; details: Homo sapiens, PC-3, adherent monolayers
Procedure: PC-3 cells were incubated with compounds for 5 days at 37 °C/5% CO2, stained with alamarBlue® and fluorescence was determined (544 nm/590 nm). Data were analyzed as described above.

[6] = Drug concentrations in plasma and tumor of PC-3 tumor-bearing mice; assay type: in vivo; details: BomTac:NMRI-Foxn1^nu, mouse; for concentration at 24 h: oral
Source text: (§5) Plasma and homogenized tumor samples were extracted and analyzed by LC-MS. Detection was at unit resolution with a MRM 589.2/474.8. All calibration and QC samples were with ±20% (p.o.) and ±30% (i.v.) of the nominal value in the linear range of the calibration fitted with a linear regression and 1/x^2 weighting.

[7] = Tolerability of daily oral dosing in nude mice; assay type: in vivo; details: daily oral doses of 50 mg/kg
Procedure: For efficacy studies, 1 × 10^7 MIA PaCa-2 or 1 × 10^6 BxPC-3 cells (with Matrigel® 50:50) were injected subcutaneously into the right flank of female BomTac:NMRI-Foxn1^nu mice (age 6 weeks, 24-30 g; Taconic, Denmark). […] Mice were randomized according to tumor volume when tumors had reached diameters of 6–8 mm. […] Natrosol-treated animals served as vehicle controls (n = 10). Tumor diameters were measured three times weekly using a caliper and volumes were calculated according to the formula “tumor volume = length × diameter^2 × π/6”. Mice were inspected daily for abnormalities and body weight was determined three times weekly. Animals were euthanized at the end of the study or prematurely, based on criteria including weight loss exceeding 20%, tumor necrosis or tumor volumes exceeding 1500 mm^3.

[8] = tested on: SW480 colon carcinoma xenograft; assay: Subcutaneous xenograft efficacy; assay type: in vivo, mice
Procedure: (§6) For efficacy studies, 1 × 10^7 MIA PaCa-2 or 1 × 10^6 BxPC-3 cells (with Matrigel® 50:50) were injected subcutaneously into the right flank of female BomTac:NMRI-Foxn1^nu mice (age 6 weeks, 24-30 g; Taconic, Denmark). These two and the following tumor models were established from adherently grown cells which were either subcutaneously injected in PBS (LoVo, SW480, A-498, Calu-6, NCI-H2122, A549, SK-OV-3, TOV-21G, AsPC-1, PC-3) or were injected with Matrigel (HCC-461, A2780, PANC-1 and Hs 746 T). For the Caki-1 tumor model tumor fragments were passaged in mice. Mice were randomized according to tumor volume when tumors had reached diameters of 6–8 mm. […] Natrosol-treated animals served as vehicle controls (n = 10). Tumor diameters were measured three times weekly using a caliper and volumes were calculated according to the formula “tumor volume = length × diameter^2 × π/6”. Mice were inspected daily for abnormalities and body weight was determined three times weekly. Animals were euthanized at the end of the study or prematurely, based on criteria including weight loss exceeding 20%, tumor necrosis or tumor volumes exceeding 1500 mm^3.
as §2, §3

[9] = tested on: BxPC-3 pancreas adenocarcinoma xenograft; assay: Subcutaneous xenograft efficacy; assay type: in vivo, mice; details: BxPC-3, 50 mg/kg
Procedure: as §6, §2, §3

Caki-1 kidney xenograft = assay: Subcutaneous xenograft efficacy; assay type: in vivo, mice
Procedure: as §6, §2, §3

A-498 kidney xenograft = assay: Subcutaneous xenograft efficacy; assay type: in vivo, mice
Procedure: as §6, §2, §3

Calu-6 lung xenograft = assay: Subcutaneous xenograft efficacy; assay type: in vivo, mice
Procedure: as §6, §2, §3

HCC-461 lung xenograft = assay: Subcutaneous xenograft efficacy; assay type: in vivo, mice
Procedure: as §6, §2, §3

[10] = tested on: AsPC-1 pancreas xenograft; assay: Subcutaneous xenograft efficacy; assay type: in vivo, mice
Procedure: as §6, §2, §3

[11] = tested on: PC-3 prostate carcinoma xenograft; assay: Subcutaneous xenograft efficacy; assay type: in vivo, mice
Procedure: as §6, §2, §3

[12] = tested on: LoVo colon/rectum xenograft; assay: Subcutaneous xenograft efficacy; assay type: in vivo, mice
Procedure: as §6, §2, §3

[13] = tested on: PANC-1 pancreas xenograft; assay: Subcutaneous xenograft efficacy; assay type: in vivo, mice
Procedure: as §6, §2, §3

[14] = tested on: MIA PaCa-2 pancreas adenocarcinoma xenograft; assay: Subcutaneous xenograft efficacy; assay type: in vivo, mice
Procedure: as §6, §2, §3

A2780 ovary xenograft = assay: Subcutaneous xenograft efficacy; assay type: in vivo, mice
Procedure: as §6, §2, §3

[15] = tested on: Hs 746T stomach xenograft; assay: Subcutaneous xenograft efficacy; assay type: in vivo, mice
Procedure: as §6, §2, §3

TOV-21G ovary xenograft = assay: Subcutaneous xenograft efficacy; assay type: in vivo, mice
Procedure: as §6, §2, §3

[16] = tested on: NCI-H2122 lung carcinoma xenograft; assay: Subcutaneous xenograft efficacy; assay type: in vivo, mice
Procedure: as §6, §2, §3

A549 lung xenograft = assay: Subcutaneous xenograft efficacy; assay type: in vivo, mice
Procedure: as §6, §2, §3

[17] = tested on: SK-OV-3 ovarian carcinoma xenograft; assay: Subcutaneous xenograft efficacy; assay type: in vivo, mice
Procedure: as §6, §2, §3

PTK2B/PYK2 [18] = target: T2, PTK2B/PYK2 (Homo sapiens, UniProt Q14289); assay: PYK2 kinase assay, DELFIA format; assay type: biochemical
T2 construct: purchased Invitrogen/Life Technologies
Procedure: as §4, with “Technologies).” for “Technologies). Selectivity was determined on the Invitrogen kinase panel at 1 µmol/L.”

FER = target: T3, FER (Homo sapiens, UniProt P16591); assay: FER kinase assay, Z'-LYTE; assay type: biochemical
T3 construct: purchased Invitrogen/Life Technologies
Procedure: as §4

PAK7 = target: T4, PAK7 (Homo sapiens, UniProt Q9P286); assay: PAK7 kinase assay, Z'-LYTE; assay type: biochemical
T4 construct: purchased Invitrogen/Life Technologies
Procedure: as §4

[19] = Single-dose pharmacokinetics in nude mice; assay type: in vivo
Source text: as §5

PTK2B/PYK2 [20] = target: T2, PTK2B/PYK2; assay: PYK2 kinase assay, Z'-LYTE (FRET); assay type: biochemical
Procedure: as §4, with “Technologies).” for “Technologies). Selectivity was determined on the Invitrogen kinase panel at 1 µmol/L.”

[21] = female, BomTac:NMRI-Foxn1^nu, mouse, plasma, single oral dose 50 mg/kg

T2 sequence (Q14289 whole entry): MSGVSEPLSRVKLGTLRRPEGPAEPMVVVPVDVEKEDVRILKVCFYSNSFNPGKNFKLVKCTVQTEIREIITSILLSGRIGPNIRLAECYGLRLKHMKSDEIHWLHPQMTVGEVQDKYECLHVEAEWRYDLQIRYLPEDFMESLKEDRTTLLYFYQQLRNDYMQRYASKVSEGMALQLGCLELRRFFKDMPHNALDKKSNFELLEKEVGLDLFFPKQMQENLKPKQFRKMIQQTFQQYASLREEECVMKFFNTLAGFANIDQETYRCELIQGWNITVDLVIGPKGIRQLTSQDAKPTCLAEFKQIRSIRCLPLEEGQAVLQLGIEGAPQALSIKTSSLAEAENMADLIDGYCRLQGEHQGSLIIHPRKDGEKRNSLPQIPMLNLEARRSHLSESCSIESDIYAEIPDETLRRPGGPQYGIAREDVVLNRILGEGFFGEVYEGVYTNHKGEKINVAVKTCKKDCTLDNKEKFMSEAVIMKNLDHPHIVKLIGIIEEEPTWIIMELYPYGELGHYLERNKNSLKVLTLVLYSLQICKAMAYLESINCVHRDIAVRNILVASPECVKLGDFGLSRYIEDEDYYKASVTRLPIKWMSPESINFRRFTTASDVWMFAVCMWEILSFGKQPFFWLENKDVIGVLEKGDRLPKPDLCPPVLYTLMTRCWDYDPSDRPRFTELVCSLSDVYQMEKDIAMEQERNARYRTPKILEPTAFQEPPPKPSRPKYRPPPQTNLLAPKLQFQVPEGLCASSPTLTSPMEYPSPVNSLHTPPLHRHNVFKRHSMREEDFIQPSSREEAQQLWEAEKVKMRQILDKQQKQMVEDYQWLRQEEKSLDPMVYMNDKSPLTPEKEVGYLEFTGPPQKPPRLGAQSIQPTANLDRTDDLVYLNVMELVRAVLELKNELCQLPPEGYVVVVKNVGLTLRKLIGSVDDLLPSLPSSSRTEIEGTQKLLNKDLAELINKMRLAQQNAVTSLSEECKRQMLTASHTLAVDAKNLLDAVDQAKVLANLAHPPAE
T4 sequence (Q9P286 whole entry): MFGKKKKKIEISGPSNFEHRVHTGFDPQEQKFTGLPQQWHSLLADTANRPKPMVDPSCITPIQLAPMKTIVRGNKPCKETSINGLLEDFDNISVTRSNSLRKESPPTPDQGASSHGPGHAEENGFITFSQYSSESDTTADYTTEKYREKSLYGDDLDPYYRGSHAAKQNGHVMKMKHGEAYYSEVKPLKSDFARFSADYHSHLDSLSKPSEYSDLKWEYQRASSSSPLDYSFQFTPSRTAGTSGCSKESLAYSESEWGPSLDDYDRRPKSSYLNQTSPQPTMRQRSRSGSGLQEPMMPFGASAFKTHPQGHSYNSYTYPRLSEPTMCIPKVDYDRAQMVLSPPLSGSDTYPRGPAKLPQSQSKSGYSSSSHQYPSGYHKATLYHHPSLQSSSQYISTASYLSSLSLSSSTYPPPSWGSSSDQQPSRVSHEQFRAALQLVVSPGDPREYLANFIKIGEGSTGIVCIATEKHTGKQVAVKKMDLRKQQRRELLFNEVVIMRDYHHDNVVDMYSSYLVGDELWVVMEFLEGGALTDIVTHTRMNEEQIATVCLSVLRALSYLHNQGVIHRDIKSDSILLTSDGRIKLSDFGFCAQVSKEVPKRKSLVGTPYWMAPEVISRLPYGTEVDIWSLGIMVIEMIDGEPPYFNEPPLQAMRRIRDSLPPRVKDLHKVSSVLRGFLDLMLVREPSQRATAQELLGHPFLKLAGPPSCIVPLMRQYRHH
T3 sequence (P16591 whole entry): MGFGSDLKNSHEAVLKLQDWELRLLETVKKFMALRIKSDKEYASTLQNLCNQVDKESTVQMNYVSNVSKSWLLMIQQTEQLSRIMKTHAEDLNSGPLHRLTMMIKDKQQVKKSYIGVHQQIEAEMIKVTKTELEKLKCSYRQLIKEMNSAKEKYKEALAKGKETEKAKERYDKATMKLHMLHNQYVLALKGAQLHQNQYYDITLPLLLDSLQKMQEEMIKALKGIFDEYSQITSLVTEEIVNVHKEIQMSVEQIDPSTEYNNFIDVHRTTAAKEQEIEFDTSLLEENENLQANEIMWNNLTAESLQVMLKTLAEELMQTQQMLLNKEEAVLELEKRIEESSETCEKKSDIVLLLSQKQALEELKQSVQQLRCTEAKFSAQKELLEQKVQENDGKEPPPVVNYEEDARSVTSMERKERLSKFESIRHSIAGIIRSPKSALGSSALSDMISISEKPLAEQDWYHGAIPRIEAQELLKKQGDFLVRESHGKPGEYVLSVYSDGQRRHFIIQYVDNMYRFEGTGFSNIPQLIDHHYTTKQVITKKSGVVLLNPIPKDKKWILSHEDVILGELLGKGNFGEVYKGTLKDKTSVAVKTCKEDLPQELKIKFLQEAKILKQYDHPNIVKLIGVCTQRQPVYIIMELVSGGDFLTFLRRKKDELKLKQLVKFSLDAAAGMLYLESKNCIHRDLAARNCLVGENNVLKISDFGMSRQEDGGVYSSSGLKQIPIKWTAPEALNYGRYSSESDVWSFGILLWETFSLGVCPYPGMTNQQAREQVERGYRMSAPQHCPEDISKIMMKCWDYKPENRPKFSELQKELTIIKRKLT
T1 sequence (P07332 whole entry): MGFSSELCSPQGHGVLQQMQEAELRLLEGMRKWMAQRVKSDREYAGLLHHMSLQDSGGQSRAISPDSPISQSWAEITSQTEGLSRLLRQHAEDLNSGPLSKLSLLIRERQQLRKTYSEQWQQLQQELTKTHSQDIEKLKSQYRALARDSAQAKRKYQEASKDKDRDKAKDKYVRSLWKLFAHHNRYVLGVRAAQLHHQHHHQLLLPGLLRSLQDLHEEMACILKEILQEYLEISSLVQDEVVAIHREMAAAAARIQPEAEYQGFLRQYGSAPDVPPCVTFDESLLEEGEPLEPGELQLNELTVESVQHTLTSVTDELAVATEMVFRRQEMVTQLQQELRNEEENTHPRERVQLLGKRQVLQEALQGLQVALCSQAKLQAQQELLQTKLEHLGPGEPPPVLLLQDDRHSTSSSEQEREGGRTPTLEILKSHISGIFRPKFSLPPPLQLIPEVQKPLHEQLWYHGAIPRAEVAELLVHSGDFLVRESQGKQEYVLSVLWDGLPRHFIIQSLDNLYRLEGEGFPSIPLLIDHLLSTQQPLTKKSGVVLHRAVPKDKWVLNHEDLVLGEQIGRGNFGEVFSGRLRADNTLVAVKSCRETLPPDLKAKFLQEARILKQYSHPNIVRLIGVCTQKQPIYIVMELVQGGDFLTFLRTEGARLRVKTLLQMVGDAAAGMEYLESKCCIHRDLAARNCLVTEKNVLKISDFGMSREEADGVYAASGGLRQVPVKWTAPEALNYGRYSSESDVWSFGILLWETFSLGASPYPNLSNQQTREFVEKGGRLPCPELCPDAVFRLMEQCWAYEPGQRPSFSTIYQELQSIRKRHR

Compound: COc1cc(C(=O)NC2CCN(C)CC2)c(F)cc1Nc1ncc(C(F)(F)F)c(Oc2cccc3c2C(=O)N(C)C3)n1 [BI 853520]
- EC50 (PC-3; Homo sapiens): 10 nM
- maximal inhibition of proliferation (PC-3): 20%
- maximal inhibition of proliferation [1]: 40%
- EC50 ([1]; Homo sapiens): 3 nM
- EC50 ([2]; Homo sapiens, few cell lines with interpretable sigmoid curves): 3 to 30 nM
- effect on proliferation, vast majority of cell lines ([2]; concentrations as high as 1 µmol/L): not affected
- maximal inhibition of proliferation ([2]; few cell lines with interpretable sigmoid curves): 20–30%
- Sensitivity (NCI-H2110 lung xenograft): moderately sensitive (“moderately sensitive” for statistically significant TGI values of 57–83%)
- EC50 (PC-3 cells [3]): 3 nM
- oral bioavailability in patients [4]: orally bioavailable
- safety profile in patients [4]: favorable safety profile
- IC50 (FES): 1040 nM
- EC50 (PC-3 cells [5]): > 3000 nM
- concentration at 24 h ([6]; PC-3 tumor tissue, 50 mg/kg p.o. qdx4, 24 h after dose on day 4, PC-3 tumors, read-out: concentration in tumor tissue): 8.9 µM
- Tmax ([6]; PC-3 tumor tissue, po, 50 mg/kg p.o. qdx4, day 4, PC-3 tumors, read-out: time of peak level in tumor tissue): 6 h
- concentration at 24 h ([6]; plasma, 50 mg/kg p.o. qdx4, 24 h after dose on day 4, read-out: plasma level): 1.3 µM
- tolerability (body weight gain, clinical signs) [7]: well tolerated
- Median TGI ([8]; SW480, 50 mg/kg once daily per os): 26 (n.s.) % and 26%
- TGI ([8]; SW480 xenograft, Supplement Table 3): 26%
- Median TGI [9]: 29%
- Median TGI (Caki-1 kidney xenograft; Caki-1, 50 mg/kg once daily per os): 66%
- TGI (Caki-1 kidney xenograft; Caki-1 xenograft, Supplement Table 3): 66%
- Median TGI (A-498 kidney xenograft; A-498, 50 mg/kg once daily per os): 93%
- TGI (A-498 kidney xenograft; A-498 xenograft, Supplement Table 3): 93%
- Median TGI (Calu-6 lung xenograft; Calu-6, 50 mg/kg once daily per os): 102%
- TGI (Calu-6 lung xenograft; Calu-6 xenograft, Supplement Table 3): 102%
- Median TGI (HCC-461 lung xenograft; HCC-461, 50 mg/kg once daily per os): 102%
- TGI (HCC-461 lung xenograft; HCC-461 xenograft, Supplement Table 3): 102%
- Median TGI ([10]; AsPC-1, 50 mg/kg once daily per os): 13 (n.s.) % and 13%
- TGI ([10]; AsPC-1 xenograft, Supplement Table 3): 13%
- Median TGI ([11]; PC-3, 50 mg/kg once daily per os): 93%
- TGI ([11]; PC-3 xenograft, Supplement Table 3): 93%
- TGI ([12]; LoVo xenograft, Supplement Table 3): 14%
- Median TGI ([12]; LoVo, 50 mg/kg once daily per os, 50 mg/kg): 14 (n.s.) % and 14%
- Median TGI ([13]; PANC-1, 50 mg/kg once daily per os): 83%
- TGI ([13]; PANC-1 xenograft, Supplement Table 3): 83%
- TGI ([14]; MIA PaCa-2, 12.5 mg/kg, second independent study): 89%
- partial regressions ([14]; MIA PaCa-2, 25 mg/kg once daily): 5 out of 10 tumors
- TGI ([14]; MIA PaCa-2, 25 mg/kg once daily, first study): 94%
- TGI ([14]; MIA PaCa-2, 25 mg/kg, second independent study): 96%
- partial regressions ([14]; MIA PaCa-2, 50 mg/kg once daily): 6 out of 10 tumors
- Median TGI ([14]; MIA PaCa-2, 50 mg/kg once daily per os): 104%
- TGI ([14]; MIA PaCa-2 xenograft, Supplement Table 3): 104%
- Median TGI (A2780 ovary xenograft; A2780, 50 mg/kg once daily per os): 89%
- TGI (A2780 ovary xenograft; A2780 xenograft, Supplement Table 3): 89%
- TGI ([15]; Hs 746T xenograft, Supplement Table 3): 72%
- Median TGI ([15]; Hs 746T, 50 mg/kg once daily per os): 72%
- TGI (TOV-21G ovary xenograft; TOV-21G xenograft, Supplement Table 3): 93%
- Median TGI (TOV-21G ovary xenograft; TOV-21G, 50 mg/kg once daily per os): 93%
- Median TGI ([16]; NCI-H2122, 50 mg/kg once daily per os): 45 (n.s.) % and 45%
- TGI ([16]; NCI-H2122 xenograft, Supplement Table 3): 45%
- Median TGI (A549 lung xenograft; A549, 50 mg/kg once daily per os): 15 (n.s.) % and 15%
- TGI (A549 lung xenograft; A549 xenograft, Supplement Table 3): 15%
- Median TGI ([17]; SK-OV-3, 50 mg/kg once daily per os): 57%
- TGI ([17]; SK-OV-3 xenograft, Supplement Table 3): 57%
- IC50 (PTK2B/PYK2 [18]): > 50000 nM
- IC50 (FER): 903 nM
- IC50 (PAK7): > 10000 nM
- clearance ([19]; BomTac:NMRI-Foxn1^nu, mouse, plasma, single intravenous dose 5 mg/kg, female nude mice): 36 mL/min/kg
- MRT ([19]; BomTac:NMRI-Foxn1^nu, mouse, plasma, single intravenous dose 5 mg/kg, female nude mice, read-out: mean residence time): 3 h
- Vd ([19]; BomTac:NMRI-Foxn1^nu, mouse, plasma, single intravenous dose 5 mg/kg, female nude mice, read-out: volume of distribution): 6.6 L/kg
- bioavailability [19, 21]: 90%
- half-life [19, 21]: 5 h
- Tmax ([19]; female, BomTac:NMRI-Foxn1^nu, mouse, single oral dose 50 mg/kg, plasma, read-out: time of maximal concentration): 2 h
- AUC ([19]; single oral dose 50 mg/kg): 46 µM·h
- maximal concentration ([19]; single oral dose 50 mg/kg, plasma): 4.4 µmol/L
- IC50 (PTK2B/PYK2 [20]): 2000 nM
